Measured values as given in publication PMC4303209, “A novel phosphatidylinositol 3-kinase (PI3K) inhibitor directs a potent FOXO-dependent, p53-independent cell cycle arrest phenotype characterized by the differential induction of a subset of FOXO-regulated genes” (Breast Cancer Research : BCR, 2014).

Tested on: MCF-7 breast cancer cells
Assay: Microarray gene expression analysis (Agilent whole human genome 4 x 44K; compound vs DMSO, LIMMA log2 fold change)
Assay type: cell-based
Conditions: Apoptosis genes

Structure (SMILES): Oc1cccc(-c2nc(N3CCOCC3)c3oc4ncccc4c3n2)c1 [PI-103]
- KALRN log2FC (Gene 8997): 0.194
- SOCS3 log2FC (Gene 9021): -0.840
- BRSK2 log2FC (Gene 9024): -0.160
- UBE2M log2FC (Gene 9040): -0.417
- SART1 log2FC (Gene 9092): -0.00235
- DNAJA3 log2FC (Gene 9093): 0.121
- RABEP1 log2FC (Gene 9135): 0.492
- ARHGEF2 log2FC (Gene 9181): -0.509
- DEDD log2FC (Gene 9191): -0.033
- AURKB log2FC (Gene 9212): -0.231
- FAIM3 log2FC (Gene 9214): -0.530
- DLG5 log2FC (Gene 9231): -0.212
- PNMA1 log2FC (Gene 9240): 0.459
- NOG log2FC (Gene 9241): -0.308
- CRLF1 log2FC (Gene 9244): 0.144
- STK17B log2FC (Gene 9262): 0.429
- STK17A log2FC (Gene 9263): 0.011
- BCL7C log2FC (Gene 9274): -0.197
- TAOK2 log2FC (Gene 9344): -0.249
- SLIT2 log2FC (Gene 9353): 0.341
- SLC9A3R1 log2FC (Gene 9368): -0.528
- TJP2 log2FC (Gene 9414): 0.196
- NTN1 log2FC (Gene 9423): -0.198
- ITM2B log2FC (Gene 9445): 0.317
- AIM2 log2FC (Gene 9447): -0.062
- LY86 log2FC (Gene 9450): -0.203
- EIF2AK3 log2FC (Gene 9451): 0.495
- HAND2 log2FC (Gene 9464): -0.691
- ATG5 log2FC (Gene 9474): -0.728
- ROCK2 log2FC (Gene 9475): 0.195
- MAPK8IP1 log2FC (Gene 9479): 0.085
- SLC25A27 log2FC (Gene 9481): -0.081
- PSMF1 log2FC (Gene 9491): -0.344
- LITAF log2FC (Gene 9516): -0.833
- EEF1E1 log2FC (Gene 9521): 0.110
- BAG4 log2FC (Gene 9530): 0.152
- BAG3 log2FC (Gene 9531): -0.812
- EI24 log2FC (Gene 9538): -0.583
- BCAR1 log2FC (Gene 9564): -0.480
- BRE log2FC (Gene 9577): -0.205
- RNF7 log2FC (Gene 9616): -0.244
- TRAF4 log2FC (Gene 9618): -0.924
- AATK log2FC (Gene 9625): 1.492
- IKBKE log2FC (Gene 9641): -0.667
- PPM1F log2FC (Gene 9647): -0.302
- RAPGEF2 log2FC (Gene 9693): 0.948
- ESPL1 log2FC (Gene 9700): 0.721
- HERPUD1 log2FC (Gene 9709): 0.170
- SLK log2FC (Gene 9748): 0.857
- BCLAF1 log2FC (Gene 9774): 0.632
- KIAA0141 log2FC (Gene 9812): 0.468
- RB1CC1 log2FC (Gene 9821): 1.484
- ARHGEF11 log2FC (Gene 9826): -0.060
- ARHGEF17 log2FC (Gene 9828): 0.506
- MELK log2FC (Gene 9833): 0.254
- PSMD6 log2FC (Gene 9861): 0.158
- ARNT2 log2FC (Gene 9915): 0.025
- THOC1 log2FC (Gene 9984): 0.375
- CASP8AP2 log2FC (Gene 9994): 0.614
- SRA1 log2FC (Gene 10011): -0.916
- PDCD6IP log2FC (Gene 10015): 0.603
- PDCD6 log2FC (Gene 10016): -0.491
- BCL2L11 log2FC (Gene 10018): 0.088
- PARP2 log2FC (Gene 10038): 0.326
- DNAJB6 log2FC (Gene 10049): 0.183
- DNM1L log2FC (Gene 10059): 0.444
- PDCD7 log2FC (Gene 10081): 0.098
- PPIF log2FC (Gene 10105): -1.136
- FEM1B log2FC (Gene 10116): -0.374
- BCAP31 log2FC (Gene 10134): -0.357
- RBM5 log2FC (Gene 10181): 0.638
- RNF41 log2FC (Gene 10193): 0.278
- PSME3 log2FC (Gene 10197): -1.222
- DHRS2 log2FC (Gene 10202): 0.281
- TOPORS log2FC (Gene 10210): 0.598
- PSMD14 log2FC (Gene 10213): 0.153
- SPRY2 log2FC (Gene 10253): -0.930
- NET1 log2FC (Gene 10276): 0.503
- UBE4B log2FC (Gene 10277): -0.565
- SAP18 log2FC (Gene 10284): 0.198
- TRAIP log2FC (Gene 10293): 0.566
- MAEA log2FC (Gene 10296): -0.106
- PAK4 log2FC (Gene 10298): -0.420
- RTN3 log2FC (Gene 10313): -0.192
- CITED2 log2FC (Gene 10370): 2.312
- SEMA3A log2FC (Gene 10371): 0.050
- DLC1 log2FC (Gene 10395): -1.010
- GNB2L1 log2FC (Gene 10399): -0.033
- YAP1 log2FC (Gene 10413): 0.172
- CFDP1 log2FC (Gene 10428): 0.411
- C1D log2FC (Gene 10438): 0.246
- ACAA2 log2FC (Gene 10449): 0.115
- VAV3 log2FC (Gene 10451): 2.272
- STK25 log2FC (Gene 10494): 0.213
- SEMA4D log2FC (Gene 10507): 0.274
- MYBBP1A log2FC (Gene 10514): -0.303
- CIB1 log2FC (Gene 10519): -0.082
- ATG7 log2FC (Gene 10533): -0.414
- HTATIP2 log2FC (Gene 10553): 0.204
- ERN2 log2FC (Gene 10595): -0.680
- RBCK1 log2FC (Gene 10616): -0.315
- STAMBP log2FC (Gene 10617): 0.275
- IVNS1ABP log2FC (Gene 10625): 0.167
- TXNIP log2FC (Gene 10628): 2.206
- RRAGA log2FC (Gene 10670): -0.315
- PNMA2 log2FC (Gene 10687): -0.058
- CHL1 log2FC (Gene 10752): 0.036
- NES log2FC (Gene 10763): -0.277
- PLK2 log2FC (Gene 10769): -0.927
- ZMYND11 log2FC (Gene 10771): 0.395
- NEK6 log2FC (Gene 10783): -0.675
- NCKAP1 log2FC (Gene 10787): 0.619
- ZNF268 log2FC (Gene 10795): 0.176
- PPP1R13L log2FC (Gene 10848): 0.642
- LILRB1 log2FC (Gene 10859): -0.213
- MRPS30 log2FC (Gene 10884): 0.033
- PROKR1 log2FC (Gene 10887): -0.254
- PPARGC1A log2FC (Gene 10891): 0.154
- MALT1 log2FC (Gene 10892): -0.458
- JTB log2FC (Gene 10899): -0.072
- BLCAP log2FC (Gene 10904): -0.472
- EDAR log2FC (Gene 10913): -0.571
- RNPS1 log2FC (Gene 10921): -0.284
- FASTK log2FC (Gene 10922): -0.187
- PRDX3 log2FC (Gene 10935): 0.328
- MLLT11 log2FC (Gene 10962): -0.868
- YWHAQ log2FC (Gene 10971): 0.144
- IL24 log2FC (Gene 11009): -0.212
- RIPK3 log2FC (Gene 11035): -0.030
- PIM2 log2FC (Gene 11040): -0.544
- DIDO1 log2FC (Gene 11083): -0.398
- FAF1 log2FC (Gene 11124): 0.215
- CAPN10 log2FC (Gene 11132): -0.148
- NISCH log2FC (Gene 11188): 0.538
- CHEK2 log2FC (Gene 11200): 0.111
- AKAP13 log2FC (Gene 11214): -0.354
- DDX20 log2FC (Gene 11218): 0.280
- PDCD10 log2FC (Gene 11235): 0.466
- GABARAP log2FC (Gene 11337): 0.401
- ATF5 log2FC (Gene 22809): -1.254
- PHLDA1 log2FC (Gene 22822): -2.154
- CARD8 log2FC (Gene 22900): 0.156
- SNW1 log2FC (Gene 22938): 0.538
- TRIM32 log2FC (Gene 22954): -0.315
- ACIN1 log2FC (Gene 22985): -0.228
- TRIM35 log2FC (Gene 23087): 0.205
- KIF1B log2FC (Gene 23095): 0.163
- PSME4 log2FC (Gene 23198): -0.072
- ARHGEF9 log2FC (Gene 23229): 0.137
- PACS2 log2FC (Gene 23241): -0.041
- MCF2L log2FC (Gene 23263): 0.306
- TRIM2 log2FC (Gene 23321): 0.862
- ARHGEF12 log2FC (Gene 23365): 0.170
- PPP1R13B log2FC (Gene 23368): 0.064
- NCSTN log2FC (Gene 23385): 0.292
- ADNP log2FC (Gene 23394): 0.175
- SIRT1 log2FC (Gene 23411): 1.169
